Results: patent publication US20240382475A1, “Quinazoline Derivative, Or Preparation Method Therefor And Use Thereof” (Zhejiang Hisun Pharmaceutical Co., Ltd., priority 2021, published 2024)
Like-named read-outs stand apart in the source and are kept apart here.

Experiment: Pharmacokinetic evaluation in beagle dogs
Type: in vivo
Conditions: male, dog, plasma; for AUC(0-t): read-out: Area under curve AUC0-t; for half-life: read-out: Half-life T1/2 (converted)
Protocol: Beagle, male, 13 to 14 months old, purchased from Beijing Mas Biotechnology Co., Ltd.
Intravenous injection group: an appropriate amount of the compound to be tested was weighed, and an appropriate amount of DMA:30% Solutol HS-15:Saline=5:5:90 (v/v/v) was added, vortexed, and a solution with a final concentration of 0.5 mg/mL was prepared.
Intragastric administration group: an appropriate amount of the compound to be tested was weighed, and an appropriate amount of DMA:30% Solutol HS-15:Saline=5:5:90 (v/v/v) was added, vortexed, and a solution with a final concentration of 1 mg/mL was prepared.
The beagle dogs were divided into intravenous injection group (3 dogs/group) and intragastric administration group (3 dogs/group) according to the compound to be tested.
Intravenous injection group: dogs were fasted overnight and then administered by intravenous injection (administration dosage was 0.5 mg/kg, and administration volume was 1 mL/kg), and ate 4 hours after administration. […]
Intravenous injection group: about 0.5 mL of blood was collected through jugular vein into EDTA-K2 anticoagulant tubes at 0.083 hour, 0.25 hour, 0.5 hour, 1 hour, 2 hours, 4 hours, 8 hours and 24 hours after administration. […] The collected plasma sample was stored at −40˜−20° C. before analysis.
Intragastric administration group: about 0.5 mL of blood was collected through jugular vein into EDTA-K2 anticoagulant tubes at 0.25 hour, 0.5 hour, 1 hour, 2 hours, 4 hours, 8 hours and 24 hours after administration. […] The collected plasma sample was stored at −40˜−20° C. before analysis.
LC-MS/MS was used to determine the content of the compound to be tested in dog plasma after intravenous injection and intragastric administration of the compound.

Compound COc1cc2nc(C)nc(N[C@H](C)c3cccc(C#N)c3C)c2cc1N1CCC(C)(O)CC1 [Compound 11, (R)-3-(1-((6-(4-hydroxy-4-methylpiperidin-1-yl)-7-methoxy-2-methylquinazolin-4-yl)amino)ethyl)-2-methylbenzonitrile] has a bioavailability (Oral 2 mg/kg vs injection 0.5 mg/kg, read-out: Bioavailability F) of 127%, an AUC(0-t) (Oral 2 mg/kg) of 3510 ± 1750 ng·h/mL and a half-life (Oral 2 mg/kg) of 4.21 ± 0.943 h. It also gave a Cmax (Oral 2 mg/kg, read-out: Plasma concentration Cmax) of 456 ± 149 ng/mL, an AUC(0-t) (iv, injection 0.5 mg/kg) of 693 ± 183 ng·h/mL and a half-life (iv, injection 0.5 mg/kg) of 2.81 ± 0.45 h.
